# Patent US20110256115A1, “HYDROSOLUBLE [6)O-ALPHA-D-GLCP-(1->]N-6-O-BETA-D-GLCP-(1->-PHENOLIC DERIVATIVES WITH DERMOCOSMETIC, NUTRITIONAL AND THERAPEUTIC APPLICATIONS, AND COMPOSITIONS CONTAINING SAID WATER SOLUBLE COMPOUNDS” (Libragen, priority 2008, published 2011)
# Several values for one entry are separate records, joined by “and”; a condition that tells them apart may be missing. Equal values may be shown once.
# Assay: Compared solubility in water
# Assay type: physicochemical
# Details: for B = solubility in water of O-β-D-Glcp-(1→-phenolic compound) / solubility: water saturated solution; for B = solubility in water of O-β-D-Glcp-(1→-phenolic compound) / solubility / A = solubility in water of [6)-O-α-D-Glcp-(1→]1-6-O-β-D-Glcp-(1→-phenolic compound: pH 4.0 to 5.0, no buffer added, 25° C.; for solubility: thermodynamic from solid, read-out: B = solubility in water of O-β-D-Glcp-(1→-phenolic compound); for % of solubility increase = (A − B)/B × 100: versus corresponding O-β-D-Glcp-(1→-phenolic compound); for A = solubility in water of [6)-O-α-D-Glcp-(1→]1-6-O-β-D-Glcp-(1→-phenolic compound: minimal solubility from concentrated syrup
# Excerpt: The phenolic compounds derivatives of the present invention have an improved solubility in water of at least 50% to 5000% as compared to the corresponding 0-β-D-Glcp-(14)-phenolic compound in the same physiological conditions, more preferably at least 50%, 100%, 200%, 400%, 800%, 1000%, 2000%, 3000%, 4000% or 5000%. Solubility of a phenolic compound derivative can be estimated by preparing a saturated water solution of said phenolic compound derivative. Excess solid form of phenolic compound derivative is eliminated by high speed centrifugation and concentration of compound A in the supernatant is estimated by HPLC using appropriate references (see above §‘Prepation of derivative’ for HPLC conditions example). Solubility difference is calculated with formula: […]
# For this purpose, these [6)-O-α-D-Glcp-(1→]n-6-O-β-D-Glcp-(1→-phenolic derivatives have been prepared as described in example 1, and concentrated as described in EP2007/055815. The resulting concentrated syrup obtained after purification of these [6)-O-α-D-Glcp-(1→]1-6-O-β-D-Glcp-(1→-phenolic derivatives has been diluted and analyzed by HPLC to estimate the content of soluble [6)-O-α-D-Glcp-(1→]1-6-O-β-D-Glcp-(1→-phenolic derivatives.
# In parallel, an excess amount of each corresponding β-D-Glcp-(1→-phenolic derivatives has been diluted in water to enable the preparation of water saturated solutions of these compounds. After high speed centrifugation to remove the excess of solid material, the supernatant of these saturated solutions has been analyzed by HPLC to estimate the content of soluble O-β-D-Glcp-(1→-phenolic derivatives.
# Nota: One should notice that solubility of the [6)-O-α-D-Glcp-(1→]1-6-O-(3-D-Glcp-(1→-phenolic derivatives is considered as a minimal solubility as concentration of the initial syrups have not been tested.
solubility,% of solubility increase = (A − B)/B × 100 (In g/L),% of solubility increase = (A − B)/B × 100 (In mM),A = solubility in water of [6)-O-α-D-Glcp-(1→]1-6-O-β-D-Glcp-(1→-phenolic compound,Molecule,B = solubility in water of O-β-D-Glcp-(1→-phenolic compound)
–,–,–,–,"COc1ccc(/C=C/c2cc(O)cc(O[C@@H]3O[C@H](CO)[C@@H](O)[C@H](O)[C@H]3O)c2)cc1 [Deoxyrhapontin, 3,5-dihydroxy-4′-methoxystilbene-3-O-β-D-glucopyranoside, reference compound]",0.3 g/L and 0.7 mM
1200 µg/mL and 3100 µM,–,–,–,"OC[C@H]1O[C@@H](Oc2cc(O)cc(C=Cc3ccc(O)cc3)c2)[C@H](O)[C@@H](O)[C@@H]1O [O-β-D-Glcp-(1→-resveratrol, Resveratrol-3-O-β-D-glucopyranoside, reference compound]",–
1100 µg/mL and 2500 µM,–,–,–,"O=C(CCc1ccc(O)cc1)c1c(O)cc(O)cc1O[C@@H]1O[C@H](CO)[C@@H](O)[C@H](O)[C@H]1O [Phloridzin, Phloretin-2′-O-β-D-glucopyranoside, reference compound]",–
300 µg/mL and 700 µM,–,–,–,"COc1ccc(C=Cc2cc(O)cc(O[C@@H]3O[C@H](CO)[C@@H](O)[C@H](O)[C@H]3O)c2)cc1O [Rhapontin, 4′-methoxy-3,3′,5-stilbenetriol-3-O-β-D-glucopyranoside, reference compound]",–
–,Higher than 4750%,Higher than 3450%,> 53.3 g/L and > 89.1 mM,O=C(CCc1ccc(O)cc1)c1c(O)cc(O)cc1O[C@@H]1O[C@H](CO[C@H]2O[C@H](CO)[C@@H](O)[C@H](O)[C@H]2O)[C@@H](O)[C@H](O)[C@H]1O [[6)-O-α-D-Glcp-(1→]1-6-O^2′-β-D-Glcp-(1→-phloretin],–
–,Higher than 2700%,Higher than 2000%,> 8.5 g/L and > 15.0 mM,"COc1ccc(C=Cc2cc(O)cc(O[C@@H]3O[C@H](CO[C@H]4O[C@H](CO)[C@@H](O)[C@H](O)[C@H]4O)[C@@H](O)[C@H](O)[C@H]3O)c2)cc1 [[6)-O-α-D-Glcp-(1→]1-6-O^3-β-D-Glcp-(1→-3,5-dihydroxy-4′-methoxystilbene]",–
–,Higher than 5400%,Higher than 3950%,> 16.6 g/L and > 28.5 mM,"COc1ccc(C=Cc2cc(O)cc(O[C@@H]3O[C@H](CO[C@H]4O[C@H](CO)[C@@H](O)[C@H](O)[C@H]4O)[C@@H](O)[C@H](O)[C@H]3O)c2)cc1O [[6)-O-α-D-Glcp-(1→]1-6-O^3-β-D-Glcp-(1→-4′-methoxy-3,3′,5-stilbenetriol]",–
–,Higher than 5300%,Higher than 3650%,> 65.0 g/L and > 117.6 mM,OC[C@H]1O[C@H](OC[C@H]2O[C@@H](Oc3cc(O)cc(/C=C/c4ccc(O)cc4)c3)[C@H](O)[C@@H](O)[C@@H]2O)[C@H](O)[C@@H](O)[C@@H]1O [[6)-O-α-D-Glcp-(1→]1-6-O^3-β-D-Glcp-(1→-resveratrol],–
–,–,–,–,"Esculetin-6-O-β-D-glucopyranoside [Esculin, reference compound]",1.3 g/L and 3.8 mM

Molecule,solubility,% of solubility increase = (A − B)/B × 100 (In g/L),% of solubility increase = (A − B)/B × 100 (In mM),A = solubility in water of [6)-O-α-D-Glcp-(1→]1-6-O-β-D-Glcp-(1→-phenolic compound,B = solubility in water of O-β-D-Glcp-(1→-phenolic compound)
O=c1ccc2cc(O[C@@H]3O[C@H](CO[C@H]4O[C@H](CO)[C@@H](O)[C@H](O)[C@H]4O)[C@@H](O)[C@H](O)[C@H]3O)c(O)cc2o1 [[6)-O-α-D-Glcp-(1→]1-6-O^6-β-D-Glcp-(1→-esculetin],–,Higher than 850%,Higher than 550%,> 12.5 g/L and > 24.9 mM,–
